Measured values: US20120195837A1, “TIN(II)-2-HYDROXYCARBOXYLATES” (HONEYWELL INTERNATIONAL INC., priority 2011, published 2012)

Assays:
[1] = Oral care application of formulated dentifrice or oral wash; type: in vivo; conditions: formulated as oral dentifrice or oral wash
Source text: A sample of tin(II) L-lactate (Example 2) is formulated as an oral dentifrice or oral wash, using additives and methods as known in the art.

[2] = Physical properties of the solid (hygroscopicity, flow); type: physicochemical; conditions: versus stannous chloride dihydrate
Source text: Thus, tin(II) lactate is observed to be a non-hygroscopic, and therefore an easily handlable free-flowing powder. In addition, tin(II) lactate is observed to be non-corrosive.
In addition, tin(II) lactate is observed to be non-corrosive toward standard industrial equipment.

C[C@H](O)C(=O)[O-].C[C@H](O)C(=O)[O-].[Sn+2] [tin(II) L-lactate, Tin(II) L-lactate]
retention of Sn(II) ion on oral surfaces ([1]; applied for about 5 to about 10 minutes): successfully results in retention of Sn(II) ion on oral surfaces
plaque formation and/or dental caries ([1]; compared with a control group which lacks the Sn(II) application): reduces plaque formation and/or dental caries

CC(O)C(=O)[O-].CC(O)C(=O)[O-].[Sn+2] (stereo not drawn) [tin(II) lactate, Tin(II) Lactate]
hygroscopicity / powder behaviour [2]: non-hygroscopic, free-flowing powder
